Measured values taken from patent US20120252729A1, “PTH-CONTAINING THERAPEUTIC/PROPHYLACTIC AGENT FOR OSTEOPOROSIS, CHARACTERIZED IN THAT PTH IS ADMINISTERED ONCE A WEEK IN A UNIT DOSE OF 100 TO 200 UNITS” (ASAHI KASEI PHARMA CORPORATION, priority 2009, published 2012).

Assays:
[1] = system: high-risk patients diagnosed with primary osteoporosis; assay: Working Example 2: new (incl. multiple, new+worsening) vertebral fractures by x-ray, test drug 200 units once a week for 72 weeks vs placebo; assay type: in vivo, human
From the text: The above patients also took two tablets of a calcium agent once a day after dinner. […] The preparation contained precipitated calcium carbonate, magnesium carbonate, cholecalciferol (vitamin D3), and the like as components and is marketed under the trade name New Calcichew (trademark) D3″ (sold by: Daiichi Sankyo Health Care, manufactured and sold by: Nitto Pharmaceutical Industries, Ltd.).
The incidence of bone fractures was checked by frontal and lateral x-rays of the fourth thoracic to the fourth lumbar spine taken at the start and every 24 weeks thereafter.
Here, “multiple vertebral fractures” was defined as two or more new vertebral fractures. When the incidence of multiple vertebral fractures (number of cases) was compared in the test drug group (n=261) and control group (n=281) after 72 weeks of administration, it was 2.1% (6 cases) in the control group and 0.8% (2 cases) in the test drug group.

[2] = system: high-risk patients diagnosed with primary osteoporosis; assay: Working Example 2: bone density of lumbar spine and femur by DXA; assay type: in vivo, human; conditions: 200 units weekly; for Change in lumbar vertebral density (%), median: after 72 W
[3] = 200 units weekly, 72 weeks, No. of fractures: five or more
[4] = 200 units weekly, 72 weeks, No. of fractures: four
[5] = 200 units weekly, 72 weeks, No. of fractures: none
[6] = 200 units weekly, 72 weeks, No. of fractures: one
[7] = 200 units weekly, 72 weeks, No. of fractures: three
[8] = 200 units weekly, 72 weeks, No. of fractures: two
[9] = 200 units weekly, after 72 weeks, n=261
[10] = 200 units weekly, history of Alfacalcidol
[11] = 200 units weekly, history of calcitriol
[12] = 200 units weekly, history of calcium L-aspartate
[13] = 200 units weekly, history of calcium lactate
[14] = 200 units weekly, history of elcatonin
[15] = 200 units weekly, history of menatetrenone
[16] = 200 units weekly, history of raloxifene hydrochloride
[17] = 200 units weekly, patients taking glucocorticoid

Substance: teriparatide acetate
- Occurrence of new vertebral fractures after 48 weeks ([1]; 200 units weekly, 48 to 72 weeks): no new vertebral fractures occurred after 48 weeks
- New vertebral fractures: Incidence (%) [1, 3]: 0.0%
- New vertebral fractures: No. of subjects [1, 3]: 0
- New vertebral fractures: Incidence (%) [1, 4]: 0.0%
- New vertebral fractures: No. of subjects [1, 4]: 0
- New vertebral fractures: Incidence (%) [1, 5]: 97.3%
- New vertebral fractures: No. of subjects [1, 5]: 254
- New vertebral fractures: Incidence (%) [1, 6]: 1.9%
- New vertebral fractures: No. of subjects [1, 6]: 5
- New vertebral fractures: Incidence (%) [1, 7]: 0.0%
- New vertebral fractures: No. of subjects [1, 7]: 0
- New vertebral fractures: Incidence (%) [1, 8]: 0.8%
- New vertebral fractures: No. of subjects [1, 8]: 2
- Lowering of the risk of vertebral fractures (new+worsening) in comparison to the placebo ([1]; 200 units weekly, after 72 weeks): 78.6%
- Incidence of vertebral fractures (new+worsening) by Kaplan-Meier estimation ([1]; 200 units weekly, after 72 weeks, FAS): 3.5%
- Incidence of multiple vertebral fractures (two or more new vertebral fractures) [1, 9]: 0.8%
- Multiple vertebral fractures, number of cases [1, 9]: 2 cases
- New vertebral fractures: No. with fractures ([1]; 200 units weekly, complication (diabetes): no): 7
- Incidence of new vertebrae fractures (%) ([1]; 200 units weekly, complication (diabetes): no, after 24 W): 2.8%
- Incidence of new vertebrae fractures (%) ([1]; 200 units weekly, complication (diabetes): no, after 48 W): 3.3%
- Incidence of new vertebrae fractures (%) ([1]; 200 units weekly, complication (diabetes): no, after 72 W): 3.3%
- New vertebral fractures: No. with fractures ([1]; 200 units weekly, complication (diabetes): yes): 0
- Incidence of new vertebrae fractures (%) ([1]; 200 units weekly, complication (diabetes): yes, after 24 W): 0.0%
- Incidence of new vertebrae fractures (%) ([1]; 200 units weekly, complication (diabetes): yes, after 48 W): 0.0%
- Incidence of new vertebrae fractures (%) ([1]; 200 units weekly, complication (diabetes): yes, after 72 W): 0.0%
- New vertebral fractures: No. with fractures ([1]; 200 units weekly, complication (hyperlipidemia): no): 4
- Incidence of new vertebrae fractures (%) ([1]; 200 units weekly, complication (hyperlipidemia): no, after 24 W): 2.2%
- Incidence of new vertebrae fractures (%) ([1]; 200 units weekly, complication (hyperlipidemia): no, after 48 W): 3.0%
- Incidence of new vertebrae fractures (%) ([1]; 200 units weekly, complication (hyperlipidemia): no, after 72 W): 3.0%
- New vertebral fractures: No. with fractures ([1]; 200 units weekly, complication (hyperlipidemia): yes): 3
- Incidence of new vertebrae fractures (%) ([1]; 200 units weekly, complication (hyperlipidemia): yes, after 24 W): 3.2%
- Incidence of new vertebrae fractures (%) ([1]; 200 units weekly, complication (hyperlipidemia): yes, after 48 W): 3.2%
- Incidence of new vertebrae fractures (%) ([1]; 200 units weekly, complication (hyperlipidemia): yes, after 72 W): 3.2%
- New vertebral fractures: No. with fractures ([1]; 200 units weekly, complication (hypertension): no): 3
- Incidence of new vertebrae fractures (%) ([1]; 200 units weekly, complication (hypertension): no, after 24 W): 2.1%
- Incidence of new vertebrae fractures (%) ([1]; 200 units weekly, complication (hypertension): no, after 48 W): 3.1%
- Incidence of new vertebrae fractures (%) ([1]; 200 units weekly, complication (hypertension): no, after 72 W): 3.1%
- New vertebral fractures: No. with fractures ([1]; 200 units weekly, complication (hypertension): yes): 4
- Incidence of new vertebrae fractures (%) ([1]; 200 units weekly, complication (hypertension): yes, after 24 W): 3.1%
- Incidence of new vertebrae fractures (%) ([1]; 200 units weekly, complication (hypertension): yes, after 48 W): 3.1%
- Incidence of new vertebrae fractures (%) ([1]; 200 units weekly, complication (hypertension): yes, after 72 W): 3.1%
- Incidence of new vertebral fractures (%) ([1]; 200 units weekly, creatinine clearance abnormal (<80), after 24 W): 2.8%
- Incidence of new vertebral fractures (%) ([1]; 200 units weekly, creatinine clearance abnormal (<80), after 48 W): 3.4%
- Incidence of new vertebral fractures (%) ([1]; 200 units weekly, creatinine clearance abnormal (<80), after 72 W): 3.4%
- New vertebral fractures: No. with fractures ([1]; 200 units weekly, creatinine clearance at start abnormal (<80)): 6
- New vertebral fractures: No. with fractures ([1]; 200 units weekly, creatinine clearance at start normal (≧80)): 0
- Incidence of new vertebral fractures (%) ([1]; 200 units weekly, creatinine clearance normal (≧80), after 24 W): 0.0%
- Incidence of new vertebral fractures (%) ([1]; 200 units weekly, creatinine clearance normal (≧80), after 48 W): 0.0%
- Incidence of new vertebral fractures (%) ([1]; 200 units weekly, creatinine clearance normal (≧80), after 72 W): 0.0%
- New vertebral fractures: no (patients) [1, 10]: 62
- New vertebral fractures: yes (patients) [1, 10]: 1
- New vertebral fractures: no (patients) [1, 11]: 7
- New vertebral fractures: yes (patients) [1, 11]: 1
- New vertebral fractures: no (patients) [1, 12]: 28
- New vertebral fractures: yes (patients) [1, 12]: 1
- New vertebral fractures: no (patients) [1, 13]: 8
- New vertebral fractures: yes (patients) [1, 13]: 0
- New vertebral fractures: no (patients) [1, 14]: 35
- New vertebral fractures: yes (patients) [1, 14]: 2
- New vertebral fractures: no (patients) [1, 15]: 6
- New vertebral fractures: yes (patients) [1, 15]: 0
- New vertebral fractures: no (patients) [1, 16]: 20
- New vertebral fractures: yes (patients) [1, 16]: 0
- Existence of new vertebral fractures, Fracture: no (patients) [1, 17]: 29
- Existence of new vertebral fractures, Fracture: yes (patients) [1, 17]: 0
- New vertebral fractures: No. with fractures ([1]; 200 units weekly, prior osteoporosis treatment (no)): 4
- Incidence of new vertebral fractures (%) ([1]; 200 units weekly, prior osteoporosis treatment (no), after 24 W): 2.4%
- Incidence of new vertebral fractures (%) ([1]; 200 units weekly, prior osteoporosis treatment (no), after 48 W): 3.2%
- Incidence of new vertebral fractures (%) ([1]; 200 units weekly, prior osteoporosis treatment (no), after 72 W): 3.2%
- New vertebral fractures: No. with fractures ([1]; 200 units weekly, prior osteoporosis treatment (yes)): 3
- Incidence of new vertebral fractures (%) ([1]; 200 units weekly, prior osteoporosis treatment (yes), after 24 W): 2.9%
- Incidence of new vertebral fractures (%) ([1]; 200 units weekly, prior osteoporosis treatment (yes), after 48 W): 2.9%
- Incidence of new vertebral fractures (%) ([1]; 200 units weekly, prior osteoporosis treatment (yes), after 72 W): 2.9%
- New vertebral fractures, No. with fractures ([1]; FAS, 72 weeks): 7
- New vertebral fractures, No. with fractures ([1]; time after administration >24 W-≦48 W): 2
- New vertebral fractures, No. with fractures ([1]; time after administration >48 W-≦72 W): 0
- New vertebral fractures, No. with fractures ([1]; time after administration ≦24 W): 6
- Change in lumbar vertebral density (%), median ([2]; mild impairment (≧50-<80)): 6.6%
- Change in lumbar vertebral density (%), median ([2]; normal (≧80)): 8.0%
- Change in lumbar vertebral density (%), mean ([2]; normal (≧80), final): 7.5%
